Test results taken from patent publication US20190353647A1, “NOVEL REAL-TIME MULTIPLEXED, MULTI-COLOR BIOLUMINESCENCE RESONANCE ENERGY TRANSFER ASSAY, APPARATUS, AND USES THEREOF” (Universite de Bordeaux, priority 2016, published 2019).

Target: T1, TRPV1 (Homo sapiens, UniProt Q8NER1)
T1 construct: expressed in transfected cells; host or cells: HEK293T
Assay: Intermolecular BRET assay, TRPV1-Luc/YFP-CaM in HEK293T cells
Type: cell-based
Details: for Effect on CAPS-induced BRET increase: intermolecular test
Text: In order to generate the BRET constructs, super Yellow Fluorescent Protein 2 and Renilla Luciferase II were used to improve the brightness of the assay. They were referred as YFP and Luc for short in the rest of the manuscript. The cDNA of Luc and YFP were first cloned together using a three-piece ligation in the BamHI/XhoI site of pcDNA3.1(+) (Invitrogen, Carlsbad, Calif., USA), yielding two expression vectors pcDNA3.1 YFP-Luc where YFP was cloned in-fusion at the N-terminal of Luc, and pcDNA3.1 Luc-YFP where Luc was cloned in-fusion at the N-terminal of YFP. Both YFP and Luc were amplified by PCR from the pcDNA3-YFP-EPAC-Luc vector. Luc was cloned either at the N-terminal of YFP as a HindIII-EcoRI fragment (primers used: “Luc_HindIII_ATGN-term sense” and “Luc_no Stop_EcoRI_N-term antisense”) or at the COOH-terminal of YFP as an EcoRI-XhoI fragment (primer used: “Luc_EcoRI_ATG_C-term sense” and “Luc_XhoI_Stop_C-term antisense”). In parallel, YFP was cloned either at the N-terminal of Luc as a HindIII-EcoRI fragment (primers used: “YFP_HindIII_ATG_N-term sense” and “YFP_no Stop_EcoRI_N-term antisense”) or at the COOH-terminal of Luc as a EcoRI-XhoI fragment (primer used: “YFP_EcoRI_ATG_C-term sense” and “YFP_XhoI_Stop_C-term antisense”). The sequence joining Luc and YFP sequence encoded […] (SEQ ID NO: 18) as a linker, and contained an AgeI restriction site. The YFP-hTRPV1-Luc expression vector was obtained by subcloning the human TRPV1 cDNA from the pDONR201-hTRPV1 vector (Harvard Medical School PlasmID Repository, clone HsCD00081472) as an EcoRI PCR fragment in the EcoRI site of the vector pcDNA3.1 YFP-Luc (primer used: “hTRPV1_EcoRI_Fus_Sense” and “hTRPV1_EcoRI_Fus_antisense”). The hTRPV1-Luc expression vector was obtained by subcloning the cDNA of hTRPV1 as a HindIII-EcoRI fragment in place of the YFP in the HindIII-EcoRI site of the pcDNA3.1 YFP-Luc vector (primer used: “hTRPV1_HindIII_ATG_Sense” and “hTRPV1_EcoRI_Fus_antisense”). The Luc-hTRPV3 expression vector was obtained by subcloning the cDNA of hTRPV3 (Harvard Medical School PlasmID Repository, clone HsCD00341603) as a AgeI-XhoI fragment in place of the YFP in the AgeI-XhoI sites of the pcDNA3.1 Luc-YFP vector (primer used: “hTRPV3_AgeI_ATG_Sense” and “hTRPV3_Stop_XhoI_antisense”). The hTRPV4-Luc expression vector was obtained by subcloning the cDNA of hTRPV4 as a BamHI-AgeI fragment in place of the YFP in the BamHI-AgeI site of the pcDNA3.1 YFP-Luc vector (primer used: “hTRPV4_BamHI_ATG_Sense” and hTRPV4_AgeI_Fus_antisense”). In each case, the sequence joining the cDNA of interest and either Luc or YFP sequence encoded […] (SEQ ID NO: 18) as a linker.
The cDNA of mAmetrine (Plasmid #54660) and LssmOrange (Plasmid #37130) were obtained from AddGene plasmid repository. The cDNA of aquamarine, mAmetrine and LssmOrange were all subcloned as a HindIII-EcoRI fragment in place of the YFP in the HindIII-EcoRI site of the pcDNA3.1 YFP-Luc vector (primer used: “YFP_HindIII_ATG_N-term sense” and “YFP_no Stop_EcoRI_N-term antisense”) to yield pcDNA3.1 FP-Luc expression vectors (“FP” being any fluorescent protein between aquamarine, mAmetrine and LssmOrange). […] A similar strategy was used to obtain the FP-CaM expression vector using the pcDNA3.1 FP-Luc expression vector instead of the pcDNA3.1 YFP-Luc.
HEK293T cells were maintained in Dulbecco's modified Eagle's medium-high Glucose (DMEM) (D6429, Sigma) supplemented with 10% fetal bovine serum, 100 units mL-1 penicillin and streptomycin. Twenty-four hours before transfection, cells were seeded at a density of 500,000 cells in 6-well dishes. Transient transfections were performed using polyethylenimine (PEI, linear, Mr 25,000; catalogue number 23966 Polysciences, Inc., Warrington, Pa., USA) with a PEI:DNA ratio of 4:1. Usually, 0.1-0.25 μg of the donor constructions and 1.75-1.9 μg of the acceptors constructions were transfected for the BRET measurement.

[1] = TRPV1-Luc/YFP-CaM titration, presence vs absence of CAPS
[2] = temperature rise from 25 to 42° C., TRPV1-Luc/YFP-CaM

T1 sequence (Q8NER1 whole entry): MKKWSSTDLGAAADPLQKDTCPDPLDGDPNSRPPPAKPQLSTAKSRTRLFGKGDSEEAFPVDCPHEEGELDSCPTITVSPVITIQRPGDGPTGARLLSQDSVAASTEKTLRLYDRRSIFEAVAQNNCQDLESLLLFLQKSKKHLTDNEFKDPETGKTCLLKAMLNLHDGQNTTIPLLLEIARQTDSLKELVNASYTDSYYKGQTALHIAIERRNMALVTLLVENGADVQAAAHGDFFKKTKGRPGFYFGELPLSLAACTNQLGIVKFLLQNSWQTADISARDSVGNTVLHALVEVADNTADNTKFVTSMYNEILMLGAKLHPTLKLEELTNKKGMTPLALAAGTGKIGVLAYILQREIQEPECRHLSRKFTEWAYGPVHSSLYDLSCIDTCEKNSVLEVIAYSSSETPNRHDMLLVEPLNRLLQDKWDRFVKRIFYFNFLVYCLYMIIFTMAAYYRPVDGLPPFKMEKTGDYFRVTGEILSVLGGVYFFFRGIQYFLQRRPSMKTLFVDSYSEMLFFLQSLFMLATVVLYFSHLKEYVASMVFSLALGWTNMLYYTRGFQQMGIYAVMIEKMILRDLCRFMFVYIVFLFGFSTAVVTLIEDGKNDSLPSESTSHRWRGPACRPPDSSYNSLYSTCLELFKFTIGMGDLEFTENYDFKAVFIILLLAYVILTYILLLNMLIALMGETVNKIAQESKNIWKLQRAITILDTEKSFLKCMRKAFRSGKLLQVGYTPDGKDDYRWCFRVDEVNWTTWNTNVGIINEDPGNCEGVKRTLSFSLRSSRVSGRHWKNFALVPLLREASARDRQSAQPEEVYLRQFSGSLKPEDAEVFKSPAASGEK

Row | Effect on CAPS-induced BRET increase (TRPV1-Luc/YFP-CaM) | Sensitivity of TRPV1-Luc/YFP-CaM interaction (HEK293T, dose-response, FIG. 1) | Change of basal BRET signal (TRPV1-Luc/YFP-CaM) | BRET50 (concentration of YFP-CaM needed to reach 50% of maximal BRET signal) [1] | Maximal BRET signal in BRET titration curves [1] | Change in CAPS potency on temperature rise [2] | Change in maximal efficacy on temperature rise [2] | BRET signal on heating from 25 to 50° C. after preincubation (TRPV1-Luc/YFP-CaM, cells preincubated with the compound) | SMILES
1 | inhibited | – | – | – | – | – | – | – | CC(=O)Nc1nc2c(Oc3cc(-c4ccc(C(F)(F)F)cc4)ncn3)cccc2s1 [AMG517]
2 | – | sensitive | increased with a first order kinetic | diminished | dramatically increased | leftward shift | increase | – | COc1cc(CNC(=O)CCCC/C=C/C(C)C)ccc1O [CAPS, Capsaicin]
3 | inhibited | – | – | – | – | – | – | no significant increase | Oc1cc2c(cc1O)CN(C(=S)NCCc1ccc(Cl)cc1)CCC2 [CPZ, Capsazepine]
